Measured values reported in US10428045B2, “Benzazepine compounds, conjugates, and uses thereof” (Silverback Therapeutics, Inc., priority 2017, dated 2019).
Structures can show the parent of a compound that is named as a salt.

Tested on: Human peripheral blood mononuclear cells (PBMC)
Experiment: PBMC screening assay, TNF-α in supernatant
Assay type: cell-based
Settings: TNF-α in supernatant of human PBMC, 24 hours, ELISA or HTRF
Procedure: Human peripheral blood mononuclear cells (PBMC) were obtained from BenTek, frozen at 25×10^6 cell/mL in 10% DMSO (Sigma) prepared in fetal bovine serum (Gibco) and stored in liquid nitrogen. For culture PBMC were thawed quickly in a 37° C. water bath and diluted into pre-warmed RPMI 1640 (Lonza) supplemented with 10% fetal bovine serum, 2 mM glutamine, 50 μg/mL penicillin, 50 U/mL streptomycin (all from Gibco) and centrifuged for 5 minutes at 500×g. PBMC were suspended into the growth media described above and cultured at a concentration of 1×10^6 cells per mL at 37° C. in a 5% CO2 incubator.
PBMC were thawed, suspended at a concentration of 1×10^6 cell/mL in growth media and 200 μL was aliquoted into each well of a 96-well plate for a total of 0.2×10^6 cells per well. PBMC were incubated for 16-18 hours at 37° C. in a 5% CO2 humidified incubator. The following day PBMC plates were centrifuged at 500×g for 5 minutes and the growth media was removed. 150 μL of twelve concentrations ranging from 1000 to 0.000238 nM of small molecules prepared in growth media were added to PBMC in duplicate and incubated for 24 hours at 37° C. in a 5% CO2 incubator. Prior to supernatant harvest, cells were spun at 500×g for 5 minutes to remove cell debris. TNF-α activity was assessed in the supernatant by ELISA (eBioscience) or HTRF (CisBio) per the manufacturer's instructions. Optical density at 450 nm and 570 nm (ELISA) or luminescence (HTRF) was analyzed using an Envision (Perkin Elmer) plate reader, as shown in Table 5.

| Compound | EC50 [nM] |
| --- | --- |
| CCCN(CCC)C(=O)C1=Cc2ccc(C(=O)Nc3ccc(C(C)=O)cc3)cc2N=C(N)C1 [Compound 1.25, N^8-(4-acetylphenyl)-2-amino-N^4,N^4-dipropyl-3H-benzo[b]azepine-4,8-dicarboxamide trifluoroacetate salt] | < 500 |
| CCCN(CCC)C(=O)C1=Cc2ccc(C(=O)NCCNC(=O)OCc3ccccc3)cc2N=C(N)C1 [Compound 1.26, benzyl (2-(2-amino-4-(dipropylcarbamoyl)-3H-benzo[b]azepine-8-carboxamido)ethyl)carbamate trifluoroacetate salt] | < 500 |
| CCCN(CCC)C(=O)C1=Cc2ccc(C(=O)Nc3cccc(C(=O)NCCNC(=O)OCc4ccccc4)c3)cc2N=C(N)C1 [Compound 1.27, benzyl (2-(3-(2-amino-4-(dipropylcarbamoyl)-3H-benzo[b]azepine-8-carboxamido)benzamido)ethyl)carbamate] | < 500 |
| CCCN(CCC)C(=O)C1=Cc2ccc(C(=O)N[C@H]3C[C@@H]3c3ccccc3)cc2N=C(N)C1 [Compound 1.28, 2-amino-N^8-((1S,2R)-2-phenylcyclopropyl)-N^4,N^4-dipropyl-3H-benzo[b]azepine-4,8-dicarboxamide trifluoroacetate salt] | < 500 |
| CCCN(CCC)C(=O)C1=Cc2ccc(C(=O)Nc3ccc4c(c3)CCN(C(=O)OCc3ccccc3)C4)cc2N=C(N)C1 [Compound 1.29, benzyl 6-(2-amino-4-(dipropylcarbamoyl)-3H-benzo[b]azepine-8-carboxamido)-3,4-dihydroisoquinoline-2(1H)-carboxylate] | < 500 |
| CCCN(CCC)C(=O)C1=Cc2ccc(C(=O)Nc3cccc(CNC(=O)CCc4ccccc4)c3)cc2N=C(N)C1 [Compound 1.31, 2-amino-N^8-(3-((3-phenylpropanamido)methyl)phenyl)-N^4,N^4-dipropyl-3H-benzo[b]azepine-4,8-dicarboxamide bis TFA salt] | < 500 |
| CCCN(CCC)C(=O)C1=Cc2ccc(C(=O)Nc3cncc(CNC(=O)NCc4ccccc4)c3)cc2N=C(N)C1 [Compound 1.32, 2-amino-N^8-(5-((3-benzylureido)methyl)pyridin-3-yl)-N^4,N^4-dipropyl-3H-benzo[b]azepine-4,8-dicarboxamide bis TFA salt] | < 500 |
| CCCN(CCC)C(=O)C1=Cc2ccc(C(=O)Nc3cncc(CNC(=O)C4CCc5ccccc5N4)c3)cc2N=C(N)C1 (stereo not drawn) [Compound 1.33, 2-amino-N^4,N^4-dipropyl-N^8-(5-((1,2,3,4-tetrahydroquinoline-2-carboxamido)methyl)pyridin-yl)-3H-benzo[b]azepine-4,8-dicarboxamide] | < 500 |
| CCCN(CCC)C(=O)C1=Cc2ccc(C(=O)Nc3cncc(CNC(=O)C4Cc5ccccc5CN4)c3)cc2N=C(N)C1 (stereo not drawn) [Compound 1.34, 2-amino-N^4,N^4-dipropyl-N^8-(5-((1,2,3,4-tetrahyroisoquinoline-3-carboxamido)-methyl)pyridin-3-yl)-3H-benzo[b]azepine-4,8-dicarboxamide] | < 500 |
| CCCN(CCC)C(=O)C1=Cc2ccc(C(=O)Nc3cncc(CNC(=O)[C@@H](N)Cc4ccccc4)c3)cc2N=C(N)C1 [Compound 1.35, (S)-2-amino-N^8-(5-((2-amino-3-phenylpropanamido)methyl)pyridin-3-yl)-N^4,N^4-dipropyl-3H-benzo[b]azepine-4,8-dicarboxamide] | < 500 |
| CCCN(CCC)C(=O)C1=Cc2ccc(C(=O)Nc3cncc(CNC(=O)[C@H](N)Cc4ccccc4)c3)cc2N=C(N)C1 [Compound 1.36, (R)-2-amino-N^8-(5-((2-amino-3-phenyl-propanamido)-methyl)pyridine-3-yl)-N^4,N^4-dipropyl-3H-benzo[b]azepine-4,8-dicarboxamide] | < 500 |
| CCCN(CCC)C(=O)C1=Cc2ccc(C(=O)Nc3cncc(CNC(=O)Oc4ccccc4)c3)cc2N=C(N)C1 [Compound 1.37, Phenyl ((5-(2-amino-4-(dipropylcarbamoyl)-3H-benzo[b]azepine-8-carboxamido)pyridin-3-yl)methyl)carbamate] | < 500 |
| CCCN(CCC)C(=O)C1=Cc2ccc(C(=O)Nc3cncc(CNC(=O)CC(N)c4ccccc4)c3)cc2N=C(N)C1 (stereo not drawn) [Compound 1.38, 2-amino-N^8-(5-((3-amino-3-phenyl-propanamido)methyl)-pyridin-3-yl)-N^4,N^4-dipropyl-3H-benzo[b]azepine-4,8-dicarboxamide] | < 500 |
| CCCN(CCC)C(=O)C1=Cc2ccc(C(=O)Nc3cnc4c(c3)C(N)CCC4)cc2N=C(N)C1 (stereo not drawn) [Compound 1.39, 2-amino-N^8-(5-amino-5,6,7,8-tetrahydro-quinolin-3-yl)-N^4,N^4-dipropyl-3H-benzo-[b]azepine-4,8-dicarbox-amide] | < 500 |
| CCCN(CCC)C(=O)C1=Cc2ccc(C(=O)NCC3OB(O)c4ccccc43)cc2N=C(N)C1 (stereo not drawn) [Compound 1.47, 2-amino-N^8-((1-hydroxy-1,3-dihydro-benzo[c][1,2]oxaborol-3-yl)methyl)-N4,N4-dipropyl-3H-benzo[b]azepine-4,8-dicarboxamide] | 500 to 1000 |
| CCCN(CCC)C(=O)C1=Cc2ccc(C(=O)Nc3cnc4c(c3)CN(Cc3ccccc3)CC4)cc2N=C(N)C1 [Compound 1.48, 2-amino-N^8-(6-benzyl-5,6,7,8-tetrahydro-1,6-naphthyridin-3-yl)-N^4,N^4-dipropyl-3H-benzo[b]azepine-4,8-dicarboxamide] | < 500 |
| CCCN(CCC)C(=O)C1=Cc2ccc(C(=O)NCC3OB(O)c4cc(NC(=O)OCc5ccccc5)ccc43)cc2N=C(N)C1 (stereo not drawn) [Compound 1.49, benzyl (3-((2-amino-4-(dipropylcarbamoyl)-3H-benzo[b]azepine-8-carboxamido)methyl)-1-hydroxy-1,3-dihydrobenzo[c][1,2]oxaborol-6-yl)carbamate TFA salt] | 500 to 1000 |
| CCCN(CCC)C(=O)C1=Cc2ccc(C(=O)Nc3cnc4c(c3)CNCC4)cc2N=C(N)C1 [Compound 1.50, 2-amino-N^4,N^4-dipropyl-N^8-(5,6,7,8-tetrahydro-1,6-naphthyridin-3-yl)-3H-benzo[b]azepine-4,8-dicarboxamide] | < 500 |
| CCCN(CCC)C(=O)C1=Cc2ccc(C(=O)Nc3cncc(CNC(=O)[C@@H](N)C(C)C)c3)cc2N=C(N)C1 [Compound 1.51, (S)-2-amino-N^8-(5-((2-amino-3-methylbutanamido)methyl)pyridin-3-yl)-N^4,N^4-dipropyl-3H-benzo[b]azepine-4,8-dicarboxamide] | 1000 to 3000 |
| CCCN(CCC)C(=O)C1=Cc2ccc(C(=O)Nc3ccc(N4CCCC(N)C4)nc3)cc2N=C(N)C1 (stereo not drawn) [Compound 1.56, 2-amino-N^8-(6-(3-aminopiperidin-1-yl)pyridin-3-yl)-N^4,N^4-dipropyl-3H-benzo[b]azepine-4,8-dicarboxamide] | 1000 to 3000 |
| CCCN(CCC)C(=O)C1=Cc2ccc(C(=O)Nc3ccc(N4CCC(N)CC4)nc3)cc2N=C(N)C1 [Compound 1.57, 2-amino-N^8-(6-(4-aminopiperidin-1-yl)pyridin-3-yl)-N^4,N^4-dipropyl-3H-benzo[b]azepine-4,8-dicarboxamide tris HCl salt] | < 500 |
| CCCN(CCC)C(=O)C1=Cc2ccc(C(=O)Nc3cncc(C4CCNC4)c3)cc2N=C(N)C1 (stereo not drawn) [Compound 1.58, 2-amino-N^4,N^4-dipropyl-N^8-(5-(pyrrolidin-3-yl)pyridin-3-yl)-3H-benzo[b]azepine-4,8-dicarboxamide] | 500 to 1000 |
| CCCN(CCC)C(=O)C1=Cc2ccc(NC(=O)c3cccnc3)cc2N=C(N)C1 [Compound 1.62, 2-amino-8-(nicotinamido)-N,N-dipropyl-3H-benzo[b]azepine-4-carboxamide] | 500 to 1000 |
| CCCN(CCC)C(=O)C1=Cc2ccc(S(=O)(=O)Nc3cccnc3)cc2N=C(N)C1 [Compound 1.63, 2-amino-N,N-dipropyl-8-(N-(pyridin-3-yl)sulfamoyl)-3H-benzo[b]azepine-4-carboxamide] | 500 to 1000 |
